Reference: patent US4476122A, “Alkyloximes of 7-amino-thiazolyl-acetamido-cephalosporanic acids” (Roussel Uclaf, priority 1976, dated 1984)
≈ marks a conversion by molar mass, not a printed value. Read-outs that look alike come from different tables or passages of the source.

Key:
[1] = system: Klebsiella pneumonia 52,145; test: Experimental infection with Klebsiella pneumonia in mice (C); type: in vivo; details: subcutaneous
Procedure: The activity of the products of Examples 4 and 6 was studied on an experimental infection of Klebsiella pneumonia in mice. Groups of 10 male mice weighing 21 g were infected by an intraperitoneal injection of 0.5 ml of a culture in nutrive media of Klebsiella pneumonia 52,145 diluted by 1/1000 with distilled water. The products were administered subcutaneously 30 minutes, 4, 8, 24 and 32 hours after the injection and the number of dead mice was determined during 10th days.

[2] = system: Streptococcus faecalis 5 432; test: MIC, liquid medium dilution; type: cell-based
Procedure: (§1) The method used was a dilution of a liquid medium where a series of tubes received the same quantity of a sterile nutritive media and increasing doses of the test compounds were placed therein. Then each tube was seeded with a bacterial strain and was incubated for 24 or 48 hours at 37° C. in an oven. The increasing inhibition was determined by transillumination to determine the minimum inhibiting concentration (MIC in μg/ml) and the results are reported in the following Tables.

[3] = system: Proteus vulgaris (indol+) A 232; test: MIC, liquid medium dilution; type: cell-based
Procedure: as §1

Enterobacter cloacae 681 = test: MIC, liquid medium dilution; type: cell-based
Procedure: as §1

[4] = system: Streptococcus pyogenes A 561; test: MIC, liquid medium dilution; type: cell-based; details: read-out: MIC
Procedure: as §1

[5] = system: Klebsiella pneumoniae Exp. 52 145; test: MIC, liquid medium dilution; type: cell-based; details: read-out: MIC
Procedure: as §1

[6] = system: Proteus mirabilis (indol-) A 235; test: MIC, liquid medium dilution; type: cell-based
Procedure: as §1

[7] = system: Klebsiella pneumoniae 2 536 Resistant Gentamicine; test: MIC, liquid medium dilution; type: cell-based
Procedure: as §1

[8] = system: Bacillus subtilis ATCC 6 633; test: MIC, liquid medium dilution; type: cell-based
Procedure: as §1

[9] = system: Escherichia Coli Exp. TO26 B6; test: MIC, liquid medium dilution; type: cell-based
Procedure: as §1

Providencia Du 48 = test: MIC, liquid medium dilution; type: cell-based
Procedure: as §1

[10] = system: Pseudomonas 3 935 Exp. SG; test: MIC, liquid medium dilution; type: cell-based; details: 3935EXP.SG
Procedure: as §1

[11] = system: Escherichia Coli Sensitive Tetracycline ATCC 9 637; test: MIC, liquid medium dilution; type: cell-based
Procedure: as §1

[12] = system: Escherichia Coli Resistant Tetracycline ATCC 11 303; test: MIC, liquid medium dilution; type: cell-based; details: read-out: MIC
Procedure: as §1

[13] = system: Serratia Resistant Gentamicine 2 532; test: MIC, liquid medium dilution; type: cell-based
Procedure: as §1

[14] = system: Staphylococcus aureus ATCC 6 538 Pen-Sensitive; test: MIC, liquid medium dilution; type: cell-based
Procedure: as §1

[15] = system: Escherichia Coli Resistant Gentamicine, Tobramycine R 55 123 D; test: MIC, liquid medium dilution; type: cell-based
Procedure: as §1

[16] = system: Staphylococcus aureus exp. n° 54 146; test: MIC, liquid medium dilution; type: cell-based
Procedure: as §1

[17] = system: Streptococcus faecalis 99 F 74; test: MIC, liquid medium dilution; type: cell-based; details: Enterococcus faecalis
Procedure: as §1

[18] = system: Staphylococcus aureus UC 1 128 Pen-Resistant; test: MIC, liquid medium dilution; type: cell-based
Procedure: as §1

[19] = system: Salmonella typhimurium 420; test: MIC, liquid medium dilution; type: cell-based; details: Salmonella enterica
Procedure: as §1

[20] = system: Escherichia coli (T) O26 B6; test: Experimental infection with Escherichia coli (T) O26 B6 in mice; type: in vivo; details: s. c.
Procedure: The products of Example 6 and 10 were studied for their activity against an experimental infection of Escherichia coli in groups of 10 male mice weighing about 22 g. The mice received an intraperitoneal injection of 0.5 ml of a 24 hour old culture in a nutritive media of Escherichia coli (T) O26 B6 of the Pasteur Institute diluted 1/5.5 with distilled water. The test product was administered subcutaneously or orally 1 hour and 5 and 24 hours after the infection and the number of dead was determined during 8 days.

[21] = Enterococcus faecalis, 5432, 24 h
[22] = Enterococcus faecalis, 5432, 48 h
[23] = Enterobacter cloacae, 681, 48 h

CO/N=C(\C(=O)NC1C(=O)N2C(C(=O)O)=C(CSc3nnnn3C)CS[C@H]12)c1csc(N)n1 (some centres unmarked) [Example 4, 7-[{2-(2-amino-4-thiazolyl)-2-methoxyiminoacetyl}amino]-3-[(1-methyl-tetrazol-5-yl)-thiomethyl]-ceph-3-eme-4-carboxylic acid]
Mice alive on the 10th day ([1]; 5 × 0,1 mg): 9/10
Mortality after 5 J (number of dead of 10) ([1]; 5 × 0,1 mg): 1
Mice alive on the 10th day ([1]; 5 × 0,25 mg): 10/10
MIC [2, 21]: 2 mg/L (≈ 3.91 µM)
MIC [2, 22]: 2 mg/L (≈ 3.91 µM)
MIC ([3]; 24 h, read-out: MIC): 3 mg/L (≈ 5.86 µM)
MIC ([3]; 48 h): 20 mg/L (≈ 39.1 µM)
MIC (Enterobacter cloacae 681; Enterobacter cloacae, 681, 24 h): 20 mg/L (≈ 39.1 µM)
MIC (Enterobacter cloacae 681; [23]): 20 mg/L (≈ 39.1 µM)
MIC ([4]; A561, 24 h): ≤ 0.02 mg/L
MIC ([4]; A561, 48 h): ≤ 0.02 mg/L
MIC ([5]; EXP.52145, 24 h): 0.02 mg/L (≈ 0.0391 µM)
MIC ([5]; EXP.52145, 48 h): 0.02 mg/L (≈ 0.0391 µM)
MIC ([6]; 24 h, read-out: MIC): 0.05 mg/L (≈ 0.0977 µM)
MIC ([6]; 48 h, read-out: MIC): 0.05 mg/L (≈ 0.0977 µM)
MIC ([7]; 24 h): 0.4 mg/L (≈ 0.782 µM)
MIC ([7]; 48 h, read-out: MIC): 0.6 mg/L (≈ 1.17 µM)
MIC ([8]; ATCC6, 24 h): 2 mg/L (≈ 3.91 µM)
MIC ([8]; ATCC6, 48 h, read-out: MIC): 5 mg/L (≈ 9.77 µM)
MIC ([9]; 24 h): 0.2 mg/L (≈ 0.391 µM)
MIC ([9]; 48 h): 0.2 mg/L (≈ 0.391 µM)
MIC (Providencia Du 48; DU48, 24 h): 2 mg/L (≈ 3.91 µM)
MIC (Providencia Du 48; DU48, 48 h): 2 mg/L (≈ 3.91 µM)
MIC ([10]; 24 h): 20 mg/L (≈ 39.1 µM)
MIC ([10]; 48 h, read-out: MIC): 40 mg/L (≈ 78.2 µM)
MIC ([11]; ATCC9, 24 h): 0.4 mg/L (≈ 0.782 µM)
MIC ([11]; ATCC9, 48 h): 0.4 mg/L (≈ 0.782 µM)
MIC ([12]; ATCC11, 24 h): 0.05 mg/L (≈ 0.0977 µM)
MIC ([12]; ATCC11, 48 h): 0.05 mg/L (≈ 0.0977 µM)
MIC ([13]; 24 h, read-out: MIC): 1 mg/L (≈ 1.95 µM)
MIC ([13]; 48 h, read-out: MIC): 1 mg/L (≈ 1.95 µM)
MIC ([14]; ATCC6, 24 h, read-out: MIC): 1 mg/L (≈ 1.95 µM)
MIC ([14]; ATCC6, 48 h, read-out: MIC): 1 mg/L (≈ 1.95 µM)
MIC ([15]; 24 h): 0.2 mg/L (≈ 0.391 µM)
MIC ([15]; 48 h): 0.2 mg/L (≈ 0.391 µM)
MIC ([16]; 24 h): 2 mg/L (≈ 3.91 µM)
MIC ([16]; 48 h): 2 mg/L (≈ 3.91 µM)
MIC ([17]; 99F74, 24 h): 2 mg/L (≈ 3.91 µM)
MIC ([17]; 99F74, 48 h, read-out: MIC): 10 mg/L (≈ 19.5 µM)
MIC ([18]; UC1, 24 h): 2 mg/L (≈ 3.91 µM)
MIC ([18]; UC1, 48 h): 2 mg/L (≈ 3.91 µM)
MIC ([19]; 24 h): 0.2 mg/L (≈ 0.391 µM)
MIC ([19]; 48 h): 0.2 mg/L (≈ 0.391 µM)

CO/N=C(\C(=O)NC1C(=O)N2C(C(=O)O)=C(CSC(C)=O)CSC12)c1csc(N)n1 (centres unmarked) [Example 6, 3-acetylthiomethyl-7-[{2-(2-amino-4-thiazolyl)-2-methoxyiminoacetyl}amino]-ceph-3-eme-4-carboxylic acid]
Mice alive on the 10th day ([1]; 5 × 0,5 mg): 10/10
Mice alive on the 10th day ([1]; 5 × 0,25 mg): 10/10
Mice alive on the 10th day ([1]; 5 × 1 mg): 10/10
Mice surviving on the 8th day ([20]; 3 × 0,1 mg): 5/10
Mortality after 5 H 30 (number of dead of 10) ([20]; 3 × 0,1 mg): 1
Mortality after 21 H 30 (number of dead of 10) ([20]; 3 × 0,1 mg): 1
Mortality after 24 H (number of dead of 10) ([20]; 3 × 0,1 mg): 1
Mortality after 47 H (number of dead of 10) ([20]; 3 × 0,1 mg): 2
Mice surviving on the 8th day ([20]; 3 × 0,2 mg): 7/10
Mortality after 21 H 30 (number of dead of 10) ([20]; 3 × 0,2 mg): 1
Mortality after 47 H (number of dead of 10) ([20]; 3 × 0,2 mg): 1
Mortality after 70 H (number of dead of 10) ([20]; 3 × 0,2 mg): 1
Mice surviving on the 8th day ([20]; 3 × 0,3 mg): 10/10
Mice surviving on the 8th day ([20]; 3 × 0,05 mg): 4/10
Mortality after 5 J (number of dead of 10) ([20]; 3 × 0,05 mg): 1
Mortality after 21 H 30 (number of dead of 10) ([20]; 3 × 0,05 mg): 4
Mortality after 54 H (number of dead of 10) ([20]; 3 × 0,05 mg): 1
MIC [2, 21]: 5 mg/L (≈ 10.6 µM)
MIC [2, 22]: 5 mg/L (≈ 10.6 µM)
MIC ([3]; 24 h): 5 mg/L (≈ 10.6 µM)
MIC ([3]; 48 h, read-out: MIC): 10 mg/L (≈ 21.2 µM)
MIC (Enterobacter cloacae 681; Enterobacter cloacae, 681, 24 h, read-out: MIC): 10 mg/L (≈ 21.2 µM)
MIC (Enterobacter cloacae 681; [23]): 20 mg/L (≈ 42.4 µM)
MIC ([4]; A561, 24 h): ≤ 0.02 mg/L
MIC ([4]; A561, 48 h): ≤ 0.02 mg/L
MIC ([5]; EXP.52145, 24 h): 0.1 mg/L (≈ 0.212 µM)
MIC ([5]; EXP.52145, 48 h): 0.1 mg/L (≈ 0.212 µM)
MIC ([6]; 24 h): 0.05 mg/L (≈ 0.106 µM)
MIC ([6]; 48 h, read-out: MIC): 0.1 mg/L (≈ 0.212 µM)
MIC ([7]; 24 h): 1 mg/L (≈ 2.12 µM)
MIC ([7]; 48 h): 2 mg/L (≈ 4.24 µM)
MIC ([8]; ATCC6, 24 h): 1 mg/L (≈ 2.12 µM)
MIC ([8]; ATCC6, 48 h): 2 mg/L (≈ 4.24 µM)
MIC ([9]; 24 h): 0.4 mg/L (≈ 0.848 µM)
MIC ([9]; 48 h): 0.4 mg/L (≈ 0.848 µM)
MIC (Providencia Du 48; DU48, 24 h, read-out: MIC): 10 mg/L (≈ 21.2 µM)
MIC (Providencia Du 48; DU48, 48 h, read-out: MIC): 10 mg/L (≈ 21.2 µM)
MIC ([11]; ATCC9, 24 h, read-out: MIC): 0.6 mg/L (≈ 1.27 µM)
MIC ([11]; ATCC9, 48 h): 0.6 mg/L (≈ 1.27 µM)
MIC ([12]; ATCC11, 24 h): 0.1 mg/L (≈ 0.212 µM)
MIC ([12]; ATCC11, 48 h): 0.1 mg/L (≈ 0.212 µM)
MIC ([13]; 24 h): 1 mg/L (≈ 2.12 µM)
MIC ([13]; 48 h): 2 mg/L (≈ 4.24 µM)
MIC ([14]; ATCC6, 24 h): 2 mg/L (≈ 4.24 µM)
MIC ([14]; ATCC6, 48 h): 2 mg/L (≈ 4.24 µM)
MIC ([15]; 24 h, read-out: MIC): 0.6 mg/L (≈ 1.27 µM)
MIC ([15]; 48 h): 0.6 mg/L (≈ 1.27 µM)
MIC ([16]; 24 h): 2 mg/L (≈ 4.24 µM)
MIC ([16]; 48 h): 2 mg/L (≈ 4.24 µM)
MIC ([17]; 99F74, 24 h): 5 mg/L (≈ 10.6 µM)
MIC ([17]; 99F74, 48 h): > 40 mg/L
MIC ([18]; UC1, 24 h): 5 mg/L (≈ 10.6 µM)
MIC ([18]; UC1, 48 h): 5 mg/L (≈ 10.6 µM)
MIC ([19]; 24 h): 0.4 mg/L (≈ 0.848 µM)
MIC ([19]; 48 h): 0.4 mg/L (≈ 0.848 µM)
